System: arachidonic acid-induced ear swelling
Assay: topical arachidonic acid-induced ear swelling model in mice
Type: in vivo
Settings: for % Inhibition of ear swelling: male ICR mice, topical application 30 min before and 15 min after arachidonic acid, measured at 90 minutes after arachidonic acid, indomethacin 14 mM (0.1 mg/20 μL), test compound 375 mM (1.1 mg/20 μL), relative to vehicle
Protocol: 4-Methylsulfonyl-2-butenenitrile, prepared from Example 1, was used in this experiment. The test compound, indomethacin (positive control), and vehicle were evaluated for anti-inflammatory activity in a topical arachidonic acid-induced ear swelling model in mice. Male ICR mice weighing 22±2 g were used and randomly divided; the test compound and vehicle control had 10 mice, and indomethacin had 5 mice. Arachidonic Acid (0.5 mg in 20 μl of acetone:ethanol/1:1) was applied topically to the anterior and posterior surfaces of the right ear of each mouse. Test substances and vehicle, as listed in Table 2 were similarly applied 30 min before and 15 min after arachidonic acid application. The thickness of the right ear and the left ear was measured and the difference calculated as an indication of the inflammation in the right ear. Ear swelling was measured by a Dyer model micrometer gauge at 60 and 90 minutes after arachidonic acid application as an index of inflammation. Percent inhibition was calculated according to the formula: Ic−It/Ic×100, where Ic and It refers to increase of ear thickness (mm) in control and treated mice, respectively. ANOVA and Dunnett's test were employed to ascertain significant difference between vehicle control and treated groups. Significance is set at P<0.05 level.

SMILES	anti-inflammatory activity in the mouse ear swelling model (in words) (applied topically, inflammation induced by arachidonic acid)	% Inhibition of ear swelling
CS(=O)(=O)C/C=C/C#N [4-methylsulfonyl-2-butenenitrile]	anti-inflammatory	22%
COc1ccc2c(c1)c(CC(=O)O)c(C)n2C(=O)c1ccc(Cl)cc1 [Indomethacin, indomethacin, reference compound]		58%
